System: Plasmodium berghei
Test: Luciferase/luciferin-expressing antifolate-resistant parasites were used to infect a culture of HepG2 cells that were pre-incubated with compounds. Infected hepatocytes emit light due to the luciferase reaction. Assay results are presented as the percent inhibition of light emission compared to control. […]
Format: functional
Settings: sporozoite; for IC90: read-out: LUCIFERASE INFECTION ASSAY - IC90
[1] = read-out: LUCIFERASE INFECTION ASSAY - IC50

Row | Structure (SMILES) | IC90 | IC50 [1] | also measured
1 | CCOc1ccc(NC(=S)N/N=C2/C(=O)Nc3c(Cl)cc(Cl)cc32)cc1 | 1.16 µM | – | IC50 (FFLUC_HILL_SLOPE 3.63, FFLUC_R_SQUARED 0.721, HEPG2TOX_HILL_SLOPE 1.01, HEPG2TOX_R_SQUARED 0.763, PBLUC_HILL_SLOPE 15.5, PBLUC_R_SQUARED 0.598, read-out: LUCIFERASE INFECTION ASSAY - IC50): 1 µM
2 | Cc1cc(C)cc(NC(=O)c2cc(C(C)(C)C)n(-c3ccccc3)c2C)c1 | 5.09 µM | – | IC50 (PBLUC_HILL_SLOPE 2.05, PBLUC_R_SQUARED 0.76, read-out: LUCIFERASE INFECTION ASSAY - IC50): 1.74 µM
3 | FC(F)(F)Oc1ccc(Nc2cc3[nH]c(-c4ccccn4)cc3cn2)cc1 | 5.04 µM | – | IC50 (HEPG2TOX_HILL_SLOPE 10.1, HEPG2TOX_R_SQUARED 0.985, PBLUC_HILL_SLOPE 7.97, PBLUC_R_SQUARED 0.35, read-out: LUCIFERASE INFECTION ASSAY - IC50): 3.82 µM
4 | O=[N+]([O-])c1cc2c(cc1C(O)c1nnc(-c3ccccc3)o1)OCO2 (stereo unspecified) | 8.01 µM | 1.69 µM | –
5 | O=C(/C=C/c1ccc(N2CCCCC2)c([N+](=O)[O-])c1)c1ccc(O)cc1 | > 10 µM | 9.61 µM | –
6 | COc1cccc(C(=O)Nc2nc3ccccn3c2C(=O)NC2CCCCC2)c1 | 2.95 µM | – | IC50 (HEPG2TOX_HILL_SLOPE 2.26, HEPG2TOX_R_SQUARED 0.97, PBLUC_HILL_SLOPE 3.61, PBLUC_R_SQUARED 0.707, read-out: LUCIFERASE INFECTION ASSAY - IC50): 1.61 µM
7 | COc1ccc(OC)c(C(C)Nc2ncnc3sccc23)c1 (stereo unspecified) | > 10 µM | 4.28 µM | –
8 | CC(C)n1ncc2cc(NC(=O)c3cccc(S(=O)(=O)NCc4ccccc4)c3)cnc21 | > 10 µM | – | IC50 (PBLUC_HILL_SLOPE 1.68, PBLUC_R_SQUARED 0.408, read-out: LUCIFERASE INFECTION ASSAY - IC50): 6.12 µM
9 | COc1ccc(NS(=O)(=O)c2cc(NC(=O)c3cccc(OC(F)F)c3)ccc2N2CCCCC2)cc1 | > 10 µM | – | IC50 (FFLUC_HILL_SLOPE 8.96, FFLUC_R_SQUARED 0.85, read-out: LUCIFERASE INFECTION ASSAY - IC50): > 10 µM
10 | Cc1[nH]nc2ccnc(-c3cccc(Oc4ccccc4)c3)c12 | 5.52 µM | – | IC50 (PBLUC_HILL_SLOPE 4.64, PBLUC_R_SQUARED 0.273, read-out: LUCIFERASE INFECTION ASSAY - IC50): 3.44 µM
11 | CC(C)(C)c1ccc(-c2ccc(OCCCc3ccccn3)nc2)cc1 | > 9.52 µM | – | IC50 (HEPG2TOX_HILL_SLOPE 3.23, HEPG2TOX_R_SQUARED 0.98, PBLUC_HILL_SLOPE 2.82, PBLUC_R_SQUARED 0.72, read-out: LUCIFERASE INFECTION ASSAY - IC50): 6.22 µM
12 | O=C(Nc1ccc(N2CCOCC2)cc1)c1ccccc1Nc1ccc(F)cc1 | > 10 µM | > 10 µM | –
13 | O=C(Nc1ccc(OC(F)(F)F)cc1)Nc1ccc2nc(-c3ccsc3)nn2c1 | 9.37 µM | – | IC50 (FFLUC_HILL_SLOPE 13.4, FFLUC_R_SQUARED 0.266, PBLUC_HILL_SLOPE 2.61, PBLUC_R_SQUARED 0.893, read-out: LUCIFERASE INFECTION ASSAY - IC50): 4.04 µM
14 | FC(F)(F)Oc1cccc(-c2[nH]nc3ccnc(-c4ccsc4)c23)c1 | > 10 µM | > 10 µM | –
15 | CCN(CC)S(=O)(=O)c1cc(C(=O)c2c(-c3ccc(Cl)cc3)cc3ccccn23)ccc1F | > 10 µM | – | IC50 (HEPG2TOX_HILL_SLOPE 0.422, HEPG2TOX_R_SQUARED 0.219, read-out: LUCIFERASE INFECTION ASSAY - IC50): > 10 µM
16 | Cc1nn(-c2ccc(C(=O)Nc3nc(CN4CCCC4)cs3)cc2)c(C)c1Cl | 7.87 µM | – | IC50 (PBLUC_HILL_SLOPE 4.86, PBLUC_R_SQUARED 0.713, read-out: LUCIFERASE INFECTION ASSAY - IC50): 5.01 µM
17 | C=CCNC(=O)C(C)Sc1nnc(-c2ccc(C)cc2)c(-c2ccc(C)cc2)n1 (stereo unspecified) | 2.06 µM | – | IC50 (PBLUC_HILL_SLOPE 3.18, 2.13, PBLUC_R_SQUARED 0.929, 0.663, read-out: LUCIFERASE INFECTION ASSAY - IC50): 0.807 µM
18 | CN(CC(=O)Nc1nc2ccc(Cl)cc2s1)S(=O)(=O)c1ccc(C#N)cc1 | 8.36 µM | 5.71 µM | –
19 | CCOc1cc(/C=C(/C(=O)c2ccc(Br)cc2)c2nc3ccccc3[nH]2)ccc1O | 4.59 µM | – | IC50 (PBLUC_HILL_SLOPE 158, PBLUC_R_SQUARED 0.0148, read-out: LUCIFERASE INFECTION ASSAY - IC50): 4.53 µM
20 | CN(CC(=O)Nc1c(Cl)cccc1Cl)C(=O)c1cccc(Oc2cccc(C(F)(F)F)c2)c1 | 6.4 µM | – | IC50 (PBLUC_HILL_SLOPE 97.2, PBLUC_R_SQUARED 0.277, read-out: LUCIFERASE INFECTION ASSAY - IC50): 6.26 µM
21 | O=C(Nc1nc2cc3c(cc2s1)OCCO3)c1cccc2c[nH]nc12 | 0.404 µM | – | IC50 (PBLUC_HILL_SLOPE 1.1, PBLUC_R_SQUARED 0.666, read-out: LUCIFERASE INFECTION ASSAY - IC50): 0.0549 µM
22 | CCn1nnc2cc(C(=O)NC3CCc4nc(-c5ccccc5)ncc4C3)ccc21 (stereo unspecified) | > 10 µM | – | IC50 (HEPG2TOX_HILL_SLOPE 0.553, HEPG2TOX_R_SQUARED 0.534, PBLUC_HILL_SLOPE 1.69, PBLUC_R_SQUARED 0.311, read-out: LUCIFERASE INFECTION ASSAY - IC50): 4.68 µM

Row | Structure (SMILES) | IC90 | IC50 [1] | also measured
23 | COc1ccc(Cl)cc1NC(=O)C(C)NCC(c1ccccc1)c1c[nH]c2ccccc12 (stereo unspecified) | > 10 µM | 6.47 µM | –
24 | C=CCNC(=O)NCC(=O)Nc1ccc(OC)c(Cl)c1 | > 10 µM | > 10 µM | –
25 | COc1cc(C)ccc1Oc1nc2cc(C)nn2c2ccccc12 | > 10 µM | – | IC50 (HEPG2TOX_HILL_SLOPE 1.87, HEPG2TOX_R_SQUARED 0.892, read-out: LUCIFERASE INFECTION ASSAY - IC50): > 10 µM
26 | CCCCCN1C(=O)/C(=N\n2c(-c3ccc(Cl)c(Cl)c3)cs/c2=N\c2cccc(C)c2C)c2ccccc21 | > 10 µM | – | IC50 (FFLUC_HILL_SLOPE 0.963, FFLUC_R_SQUARED 0.82, HEPG2TOX_HILL_SLOPE 0.0725, HEPG2TOX_R_SQUARED 0.0443, PBLUC_HILL_SLOPE 3.87, PBLUC_R_SQUARED 0.467, read-out: LUCIFERASE INFECTION ASSAY - IC50): 6.02 µM
27 | CCOC(=O)c1c(NC(=O)Cn2ncc(Cl)c(Cl)c2=O)sc2c1CCC(C)C2 (stereo unspecified) | > 10 µM | > 10 µM | –
28 | CC(C)=CC(=O)Nc1scc(-c2ccccc2)c1C(=O)OCc1nnc(-c2cccs2)o1 | > 10 µM | – | IC50 (FFLUC_HILL_SLOPE 8.85, FFLUC_R_SQUARED 0.514, PBLUC_HILL_SLOPE 2.24, PBLUC_R_SQUARED 0.566, read-out: LUCIFERASE INFECTION ASSAY - IC50): 5.03 µM
29 | Cc1cc(C(=O)C(C)OC(=O)c2ccc(S(C)(=O)=O)c([N+](=O)[O-])c2)c(C)n1-c1ccc(Cl)cc1 (stereo unspecified) | > 10 µM | > 10 µM | –
30 | Cc1ccc(OCC(=O)Nc2cc(NC(=O)c3ccco3)ccc2C)c(C)c1 | 8.08 µM | – | IC50 (PBLUC_HILL_SLOPE 1.36, PBLUC_R_SQUARED 0.771, read-out: LUCIFERASE INFECTION ASSAY - IC50): 1.61 µM
31 | COc1ccccc1-c1cc(NC(C)=O)c2ncc(-c3cc(OC)c(OC)c(OC)c3)n2c1 | 2.96 µM | – | IC50 (HEPG2TOX_HILL_SLOPE 2.18, HEPG2TOX_R_SQUARED 0.547, PBLUC_HILL_SLOPE 12.3, PBLUC_R_SQUARED 0.226, read-out: LUCIFERASE INFECTION ASSAY - IC50): 2.47 µM
32 | CCS(=O)(=O)c1ccc(O)c(NC(=O)Cc2csc(-c3ccsc3)n2)c1 | > 10 µM | > 10 µM | –
33 | CC(=O)Nc1ccc(Sc2ccc(S(C)(=O)=O)cc2[N+](=O)[O-])cc1 | > 10 µM | > 10 µM | –
34 | COc1ccc(Nc2ncnc3scc(-c4ccc(OC)cc4)c23)cc1 | 4.29 µM | 2.65 µM | –
35 | COc1ccc(-c2nc(C(=O)Nc3ccccc3N3CCN(C)CC3)cs2)cc1OC | > 10 µM | – | IC50 (PBLUC_HILL_SLOPE 1.24, PBLUC_R_SQUARED 0.639, read-out: LUCIFERASE INFECTION ASSAY - IC50): 2.33 µM
36 | Cc1ccc(CNC(=O)c2cc(-c3ccccc3)nn2-c2ccccc2)cc1 | > 10 µM | – | IC50 (FFLUC_HILL_SLOPE 15.6, FFLUC_R_SQUARED 0.349, read-out: LUCIFERASE INFECTION ASSAY - IC50): > 10 µM
37 | CCCCn1nc(C)c(C(=O)Nc2nc3ccccc3[nH]2)c1Cl | > 10 µM | – | IC50 (PBLUC_HILL_SLOPE 0.43, PBLUC_R_SQUARED 0.84, read-out: LUCIFERASE INFECTION ASSAY - IC50): 0.0912 µM
38 | CNc1ccc2ncc(-c3ccccc3)n2n1 | 13.6 µM | – | IC50 (HEPG2TOX_HILL_SLOPE 2.41, HEPG2TOX_R_SQUARED 0.973, PBLUC_HILL_SLOPE 2.77, PBLUC_R_SQUARED 0.442, read-out: LUCIFERASE INFECTION ASSAY - IC50): 6.15 µM
39 | Clc1cccc(Nc2ncc(-c3ccc4c(c3)OCCCO4)s2)c1 | 3.49 µM | – | IC50 (PBLUC_HILL_SLOPE 0.775, PBLUC_R_SQUARED 0.83, read-out: LUCIFERASE INFECTION ASSAY - IC50): 0.205 µM
40 | COC(=O)c1ccc(NC(=O)Cc2ccc(NC(=O)OC(C)(C)C)cc2)c(C)c1 | > 10 µM | > 10 µM | –
41 | Cc1cnc(NC(=O)Nc2cccc(C(F)(F)F)c2)s1 | 3.82 µM | – | IC50 (FFLUC_HILL_SLOPE 11.7, FFLUC_R_SQUARED 0.144, HEPG2TOX_HILL_SLOPE 3.17, HEPG2TOX_R_SQUARED 0.951, PBLUC_HILL_SLOPE 13.6, PBLUC_R_SQUARED 0.664, read-out: LUCIFERASE INFECTION ASSAY - IC50): 3.25 µM
42 | C/C(=N\NC(=O)Nc1ccc(Cl)cc1)c1ccc2c(c1)OCCO2 | 9.81 µM | – | IC50 (HEPG2TOX_HILL_SLOPE 11.1, 2.08, HEPG2TOX_R_SQUARED 0.732, 0.913, PBLUC_HILL_SLOPE 3.29, PBLUC_R_SQUARED 0.645, read-out: LUCIFERASE INFECTION ASSAY - IC50): 5.03 µM
43 | O=C(NNC(=O)c1[nH]c2ccccc2c1-c1ccccc1)Nc1cccc(C(F)(F)F)c1 | > 7.53 µM | > 7.53 µM | –

Reference: ChEMBL document CHEMBL4483862, “Open-source discovery of chemical leads for next-generation chemoprotective antimalarials” (2018)
